One compound from US20190373892A1, “FORMALDEHYDE-FREE PRESERVATIVES FOR HIGHLY SUSCEPTIBLE PRODUCTS” (Troy Corporation, priority 2018, published 2019) can be followed below.

Test [1] has as its system Pseudomonas aeruginosa (ATCC #10145). The test is described as follows: Minimum Inhibitory Concentration (MIC) testing by microbroth dilution. In kind it is cell-based. The conditions noted are these: ATCC10145, 72 h, 1x Nutrient Broth, 35° C., 3 days, no growth via turbidity. On the technique in general: Broth dilution looks for growth in wells or tubes with falling amounts of substance.

Test [2] has as its system Alcaligenes faecalis (ATCC #25094), Enterobacter aerogenes (ATCC #13048), Escherichia coli (ATCC #11229), Pseudomonas aeruginosa (ATCC #10145) and Pseudomonas …. The test is described as follows: Bacterial challenge test in laboratory-made wallboard joint compound. In kind it is cell-based. The conditions noted are these: 200 ppm total active.
Text: Because this bacterial challenge test is intended to test the performance of in-can preservatives during long-term storage, only the last day of each seven-day challenge is considered important. The test sample was inoculated with bacteria on the first day of each seven-day challenge.
Bacteria were inoculated into the laboratory-made test wallboard joint formulations at approximately 10^6 CFU/g at time equals zero on the first day of each seven-day cycle. Viability of the bacteria was monitored semi-quantitatively through streak analysis 1, 2, and 7 days after inoculation. This procedure was performed twice for a total of two to four seven-day cycles. A rating of “4” indicates heavy growth, while a rating of “0” indicates undetectable growth, defined as <10 CFU/g of material. Samples free of detectable growth after 7 days are considered to be well-preserved.
For comparison, a blank, unpreserved laboratory-made wallboard joint composition is shown, as well as a laboratory-made wallboard joint composition that is preserved with a commercial formaldehyde-producing preservative, comprising 78 wt % of 2,2′,2″-(hexahydro-1,3,5-triazine-1,3,5-triyl)-triethanol (HHT). The various preservatives were added to the laboratory-made wallboard joint compound at the levels shown, in ppm by weight.

In brackets after ≈: the same amount, converted by molar mass.

For the compound `O=c1[nH]sc2ccccc12` [BIT, 1,2-benzisothiazol-3(2H)-one], the lowest concentration to inhibit growth in test [1] (MIC) was 30.8 µg/mL (≈ 204 µM). For the same compound, the “Protection of wallboard joint compound in words” value in test [2] was “neither 200 ppm BIT nor Ziram alone being capable of protecting the wallboard joint compound”.

One may read the MIC as the smallest concentration in the dilution series that meets the test's criterion for growth inhibition. The low end stands for a more susceptible organism, the high end for a less susceptible organism.
